For the assay, the system named is CRE-bla reporter cells, beta-lactamase FRET, antagonist mode. Description: inhibition of CRE beta-lactamase reporter – cell-based, beta-lactamase FRET, counter-screen for S1P2 antagonist project, dose response (AID 856). Background: Counterscreens check selectivity or assay interference.

Values joined by “and” are separate entries in the source; they are usually repeats but may differ in a detail not shown here. Identical values can stand only once. Active and inactive are the calls of the source. How the calls were made is not given here.

The term IC50 denotes the concentration needed to halve the response being measured.

As for `Cc1ccc(C(=O)OCn2ncc(Cl)c(Cl)c2=O)cc1`, the IC50 was 3080 nM.
In the case of `CN(C)C=NC(=O)c1sc2cc(C(F)(F)F)cnc2c1-c1cccs1`, the IC50 is > 40000 nM (inactive).
For `CCOC(=O)C1C(=O)CC(C)(O)C(C(=O)OCC)C1c1ccccc1` (configuration not stated) the value was > 50000 nM (inactive).
Regarding `COc1ccc(OC)c(NC(=O)CSc2ncnc3c2cnn3-c2ccccc2Cl)c1`, the IC50 was 640 nM.
Turning to `Cc1ccc2[nH]c3c(N4CCc5ccccc5C4)ncnc3c2c1`, the IC50 is 569 nM.
Regarding `Cc1nc2c(=O)n(C)c(=O)nc-2n(C)n1`, the IC50 is 1270 nM.
The figure for `O=C(NC(Nc1nc2ccc([N+](=O)[O-])cc2s1)(C(F)(F)F)C(F)(F)F)c1ccccc1` is 101 nM; for `Cn1c2c(c(=O)n(C)c1=O)C(C(F)(F)F)(C(F)(F)F)N=C(c1ccc(Cl)cc1)N2` it is 1200 nM.
For `COc1ccccc1C(=O)Nc1nc(-c2ccc(S(=O)(=O)N3CCOCC3)cc2)cs1`, the IC50 was 2250 nM.
Take `COc1ccc(NC(=O)/C(Cl)=C(/Cl)S(=O)Cc2ccc(C)cc2)cn1` (configuration not stated): the IC50 was 752 nM.
For `O=S(=O)(C/C(=C/CO)S(=O)(=O)c1ccccc1)c1ccccc1` the value was 3710 nM.
Take `CCOC(=O)N1CCN(C(=O)CSCC(=O)Nc2nc(-c3ccc(-c4ccccc4)cc3)cs2)CC1`: the IC50 is 873 nM.
With `CCn1c(=O)c(C(=O)Nc2nc3ccccc3[nH]2)c(O)c2ccccc21`, the IC50 is 29100 nM (inactive).
For `CCN1/C(=C/c2ccc3ccccc3[n+]2CC)C=Cc2ccccc21` the value was 1080 nM.
With `O=C(Nc1ccc(F)cc1)c1cc(-c2cccs2)nc2ccccc12`, the IC50 is > 40000 nM (inactive).
The figure for `CCN(CC)c1ccc2c(Cl)c(Br)c(=O)oc2c1` is 4370 nM.
For `CCCCS(=O)(=O)/C=C\C=C/S(=O)(=O)CCCC` the value was 1960 nM.
The figure for `O=C(Nc1ccc(F)cc1)c1sccc1S(=O)(=O)Cc1cccc(C(F)(F)F)c1` is > 40000 nM (inactive); for `CC1=C(C)/C(=N\OS(=O)(=O)c2ccccc2)C=CC1=O` it is 2650 nM.
For the molecule `O=C(c1sc2cc(C(F)(F)F)cnc2c1-c1ccccc1)N1CCOCC1`, the IC50 was > 40000 nM (inactive).
The figure for `COc1ccc(CS(=O)(=O)/C(Cl)=C(/Cl)C(=O)Nc2ccc(OC)nc2)cc1` is 1840 nM.
Consider `O=C(Nc1ccc(F)cc1)c1sc(-c2ccccc2)nc1C(F)(F)F`, for which the IC50 was > 40000 nM (inactive).
For `O=C(O)c1sc2cc(C(F)(F)F)cnc2c1-c1ccccc1` the value was > 40000 nM (inactive); for `COc1ccc2c(c1)[nH]c1c(N3CCN(Cc4ccc5c(c4)OCO5)CC3)ncnc12`, 1400 nM.
For `CN(C)C=NC(=O)c1sc2cc(C(F)(F)F)cnc2c1-c1ccccc1` the value was > 40000 nM (inactive).
The figure for `CCN1/C(=C\C=C\C2=[N+](CC)c3ccccc3C2(C)C)C(C)(C)c2ccccc21` is 64 nM; for `CCC(NC(=O)Nc1nnc(C(F)(F)F)s1)(C(F)(F)F)C(F)(F)F` it is 1260 nM; for `COC(=O)c1sc2cc(C(F)(F)F)cnc2c1-c1cccs1` it is > 40000 nM (inactive).
In the case of `COc1ccc(NC(=O)/C(Cl)=C(/Cl)S(=O)(=O)Cc2ccccc2)cn1`, the IC50 was 1560 nM.
The figure for `FC(F)(F)c1cnc2c(-c3cccs3)c(-c3ncn[nH]3)sc2c1` is > 40000 nM (inactive); for `Cc1cc(/C=N/n2cnnc2)c(C)n1-c1ccc(OCc2ccc(Cl)cc2)cc1` it is 362 nM.
On to `Cc1cccc(NC2=Nc3ccccc3N3C2=Nc2c(c(C)nn2-c2ccccc2)C3c2ccc(O)c(O)c2)c1` (configuration not stated), for which the IC50 is 8000 nM.
Turning to `CCCC(=O)N1CCN(c2ccc(NC(=O)c3cc4ccccc4o3)cc2Cl)CC1`, the IC50 was 2950 nM.
With `Cc1n[nH]c(C)c1N1C(=O)c2cccc3c(Br)ccc(c23)C1=O`, the IC50 was 5750 nM.
Turning to `COc1cccc(-c2nnc3n2N=C(C(C)(C)C)CS3)c1`, the IC50 was 1070 nM.
As for `Cc1ccc(-n2c(-c3ccc(Br)cc3)c[n+]3c2CCc2ccc4cccnc4c2-3)cc1`, the IC50 was 1490 nM.
Regarding `FC(F)(F)c1cnc2c(-c3cccs3)csc2c1`, the IC50 was > 40000 nM (inactive).
Take `O=C(O)c1sc2cc(C(F)(F)F)cnc2c1-c1ccccn1`: the IC50 was > 40000 nM (inactive).
As for `CC1=C/C(=N\OS(=O)(=O)c2ccccc2)C(C)=CC1=O`, the IC50 is 2390 nM.
As to `O=C(O)c1sc2cc(C(F)(F)F)cnc2c1-c1cccs1`, the IC50 is > 40000 nM (inactive).
For `N#CC(c1cccc(Cl)c1)c1ccc2c(C(F)(F)F)cc(C(F)(F)F)nc2n1` (configuration not stated) the value was 90 nM; for `CCCCCCCCCCn1c2c(c(=N)c3c1CCC3)CCC2`, 333 nM; for `Cc1ccsc1C(=O)Nc1ccc(F)cc1`, > 40000 nM (inactive).
`O=C(C#Cc1cccc([N+](=O)[O-])c1)c1ccccc1`: the IC50 is 2270 nM.
`Cn1c(-c2c(N)n(C3CCCC3)c3nc4ccccc4nc23)nc2ccccc21`: the IC50 was 2370 nM.
With `Cc1ccc(NC2=Nc3ccccc3N3C2=Nc2c(c(C)nn2-c2ccccc2)C3c2ccc(O)c(O)c2)cc1` (configuration not stated), the IC50 is 9980 nM.
The figure for `CCOC(=O)c1cnc(-n2nc(C)cc2C)nc1NC1CCCCC1` is 1750 nM.
Take `Cc1nn(-c2ccccc2)c2c1C(c1ccc(O)c(O)c1)N1C(=N2)C(Nc2ccccc2)=Nc2ccccc21` (configuration not stated): the IC50 was 10500 nM (inactive).
The figure for `O=C(c1cc(NC(=O)C23CC4CC(CC(C4)C2)C3)cc(NC(=O)C23CC4CC(CC(C4)C2)C3)c1)N1CCCCC1` is 793 nM.
The figure for `O=C(O)c1sc2cc(C(F)(F)F)cnc2c1-c1cccnc1` is > 40000 nM (inactive).
For `O=C(OCn1ncc(Cl)c(Cl)c1=O)c1ccc(F)cc1` the value was 3810 nM; for `Cn1c(-c2c(N)n(CCCc3ccccc3)c3nc4ccccc4nc23)nc2ccccc21`, > 50000 nM (inactive); for `O=S1(=O)C=C(Sc2nc3cc(Cl)ccc3o2)c2ccccc21`, 4040 nM.
As for `CCN(C(=O)c1ccc(C(C)(C)C)cc1)c1nnc(Cn2nnc3ccccc32)s1`, the IC50 was 1800 nM.
For `CCCCCCCCCn1c2c(c(=N)c3c1CCC3)CCC2` the value was 459 nM; for `COC(=O)c1sc2cc(C(F)(F)F)cnc2c1-c1ccccc1`, > 40000 nM (inactive).
For the molecule `O=C(O)c1sc2cc(C(F)(F)F)cnc2c1-c1ccco1`, the IC50 is > 40000 nM (inactive).
For the molecule `N#C/C(=C/c1ccc(N2CCCCCC2)o1)c1ccc(F)cc1`, the IC50 was 9670 nM.
For `COC(=O)c1sc2cc(C(F)(F)F)cnc2c1-c1cccnc1` the value was > 40000 nM (inactive); for `CC(=O)Nc1cc(OC(C)=O)c2nonc2c1OC(C)=O`, 3340 nM.
On to `O=C(Nc1ccc(F)cc1)c1sc2cc(C(F)(F)F)cnc2c1-c1cccs1`, for which the IC50 is > 50 µM (inactive) and > 40 µM (inactive).
For `Fc1ccc(-n2nnnc2-c2cnc(-c3cccs3)nc2C(F)(F)F)cc1` the value was 2920 nM; for `Cc1nc(-c2cccs2)sc1C(=O)Nc1ccc(F)cc1`, > 40000 nM (inactive).
As for `COC(=O)C1CN(C#N)N(c2ccc(Cl)cc2)C12c1ccccc1-c1ccccc12` (configuration not stated), the IC50 is 607 nM.
For `Cc1ccc(-c2nn(-c3ccccc3)cc2/C=N/NC(=O)c2ccc(Br)o2)cc1` the value was 1820 nM; for `COC(=O)c1sc2cc(C(F)(F)F)cnc2c1-c1ccccn1`, > 40000 nM (inactive).
For `Nc1nc(Cl)cc(N2CCC(c3cc(-c4ccc(Cl)cc4)n[nH]3)CC2)n1` the value was 1490 nM.
For `CC1=C/C(=N\OS(=O)(=O)c2ccccc2)C=CC1=O` the value was 2920 nM; for `O=C(OCn1ncc(Cl)c(Cl)c1=O)c1ccccc1Cl`, 2580 nM.
Regarding `O=C(Nc1ccc(S(=O)(=O)N2CCOCC2)cc1)c1ccc(CN2CCc3ccccc3C2)cc1`, the IC50 is 773 nM.
For `COc1ccc(NC(=O)/C(Cl)=C(/Cl)S(=O)Cc2ccccc2)cn1` (configuration not stated) the value was 1280 nM.
The figure for `NC(=O)c1sc2cc(C(F)(F)F)cnc2c1-c1cccs1` is > 40000 nM (inactive).
As to `O=C(Nc1ccc(F)cc1)c1cccs1`, the IC50 is > 40000 nM (inactive).
For `COc1ccc(NC(=O)/C(Cl)=C(/Cl)S(=O)(=O)Cc2ccc(C)cc2)cn1` the value was 1430 nM; for `CCCCCCCCNc1ncnc2ccccc12`, 42 nM.
As to `Cc1ccc2[nH]c3c(N4CCCCCC4)ncnc3c2c1`, the IC50 was 1810 nM.
The figure for `Cn1nc(-c2ccc(Cl)cc2)nc2c(=O)n(C)c(=O)nc1-2` is 634 nM.

The record behind these values is PubChem BioAssay AID856 (The Scripps Research Institute Molecular Screening Center, 2007).
